Values of other authors as cited in patent US20060135482A1, “Use of fosinopril to reduce cardiovascular events in disalysis patients” (priority 2002, published 2006).
Where two headings read alike, the source gives them in different places.

Experiments:
[1] = patients Clcr<30 ml/min
[2] = normal liver and kidney function; hepatic clearance increases if renal function impaired
[3] = 10 days; renal insufficiency patients
[4] = varying degrees of renal insufficiency incl. severe (Clcr<10 ml/min); relative to normal renal function
[5] = blood dialysis or peritoneal dialysis patients with terminal renal insufficiency

SMILES: CCOC(=O)[C@H](CCc1ccccc1)N[C@@H](C)C(=O)N1CCC[C@H]1C(=O)O [enalapril]
- AUCd10/AUCd1 (accumulation ratio, area under the curve day 10/day 1) ([1]; enalapril 2.5 mg/day for 10 days, p=0.02 versus fosinopril): 1.96

SMILES: CCC(=O)O[C@@H](O[P@](=O)(CCCCc1ccccc1)CC(=O)N1C[C@H](C2CCCCC2)C[C@H]1C(=O)O)C(C)C [fosinopril, (2S,4S)-4-cyclohexyl-1-[2-[(R)-[[(S)-2-methyl-1-(propanoyl-oxy)propyl]oxy](4-phenylbutyl)phosphinoyl]acetyl]pyrrolidine-2-carboxylic acid]
- Elimination route [2]: eliminated in equal parts via the liver and the kidneys
- Accumulation on repeated administration [3]: accumulates less than enalapril or lisinopril
- Total clearance of the medicament [4]: about half of that observed in an individual with normal renal function
- Pharmacokinetic parameters [5]: remain comparable with those observed in patients with mild, moderate or severe renal insufficiency
- AUCd10/AUCd1 (accumulation ratio, area under the curve day 10/day 1) ([1]; fosinopril 10 mg/day for 10 days, comparison versus enalapril, p=0.02): 1.41
- AUCd10/AUCd1 (accumulation ratio, area under the curve day 10/day 1) ([1]; fosinopril 10 mg/day for 10 days, comparison versus lisinopril, p<0.001): 1.3

SMILES: NCCCC[C@H](N[C@@H](CCc1ccccc1)C(=O)O)C(=O)N1CCC[C@H]1C(=O)O [lisinopril]
- AUCd10/AUCd1 (accumulation ratio, area under the curve day 10/day 1) ([1]; lisinopril 5 mg/day for 10 days, p<0.001 versus fosinopril): 2.57
